Article PMC10463376, “Design, synthesis, in vitro anticancer, molecular docking and SAR studies of new series of pyrrolo[2,3-d]pyrimidine derivatives” (BMC Chemistry, 2023)

Experiments:
Type in all cases: cell-based, human
[1] = system: caspase 3; assay: ELISA caspase 3 in A549 cells; settings: control 6.32
Source text: (§1) Elisa assay was used to determine the concentrations of Human caspases-3, -8, Bax, and Bcl2 in PACA2- and A549-treated cells. Also, the concentrations of caspase-8, Bax, and Bcl2 in MCF7-treated cells were detected. The procedures were followed up according to the instructions described in the following kits; Invitrogen human Caspase-3 Elisa Kit, Catalog KHO1091, DRG® human Caspase-8 ELISA Kit, Catalog (EIA-4863), Human Bax ELISA Kit (ab199080) and Human Bcl-2 ELISA Kit (ab119506) respectively. Shortly, the protocol described in the above kits was as followed; at the beginning, all the reagents, samples and standards were prepared. 100 μl of samples or standard were micro pipetted to each well of micro-well strip and kept at room temperature for 2 h. After washing the micro-well strips three times with washing buffer, the prepared antibody (anti-rabbit-IgG-HRP) at a concentration of 100 μl was added to each well at room temperature for 1 h. Then, the micro-well strips were washed again three times. Afterward, the prepared tetramethyl-benzidine (TMB) solution (100 μl) was added to the micro-well strips and kept for 10 min. […] The absorbance of all samples was measured at a wavelength of 460 nm and compared to that of the standard. Curve fitting software was used to plot a standard curve and the concentrations for the unknown samples were measured from the standard curve.

[2] = system: caspase 8; assay: ELISA caspase 8 in A549 cells; settings: control 5.83
Source text: as §1

[3] = system: BAX; assay: ELISA BAX in A549 cells; settings: control 5.84
Source text: as §1

[4] = system: Bcl2; assay: ELISA Bcl2 in A549 cells; settings: control 16.21
Source text: as §1

[5] = system: lung cell line (A549); assay: DNA fragmentation assay, A549; settings: A549, IC50, 24 h, vs negative control (P < 0.01); Dox. higher than 4b
Description: The DNA fragmentation assay in a pancreatic cell line (Paca2), breast cancer cell lines (MCF-7) and lung cell line (A549) was performed in concordance with the premises established by Yawata with some modifications. Briefly, after 24 h of exposure of Paca2, MCF-7 and A549 cancer cell lines to the prepared compounds in different Petri dishes (60 × 15 mm, Greiner), the cells were suspended and homogenized in 1 ml of medium and then centrifuged for 10 min at 900 rpm. The genomic DNA was extracted as shown in Yawata. About 1 × 10^6 cells of each tested cancer cell line were treated with the IC50 values of the tested compounds. All the cells were collected via trypsinization and washed with Dulbecco`s Phosphate Buffered Saline. Then, the cells were treated with the lysis buffer containing 5 mM ethylenediaminetetraacetic acid (EDTA), 10 mM Tris (pH 7.4), 0.5% Triton X-100 and 150 mM NaCl for 35 min on ice. […] Finally, the percentage of fragmented DNA was determined by performing gel electrophoresis using 2% agarose gel containing 0.1 μg/ml ethidium bromide.
Pancreatic cancer cell line (Paca2), breast cancer cell line (MCF-7) and lung cancer cell line (A549) were used to determine the percentage of DNA fragmentation after the treatment with IC50 of the tested compounds. […] The percentage of fragmented DNA was measured from the absorbance reading at 600 nm wavelength using the following formula: […]

[6] = system: IL-8; assay: RT-qPCR IL-8 mRNA in A549; settings: A549, compared with Dox.
Description: (§2) All of the extractions were conducted on ice with ice-cold reagents. Total RNA from the different cell lines was isolated using Trizol (Invitrogen; Life Technologies, USA) according to the method of Sthoeger et al.. The 260:280 ratios were measured to determine RNA quality after the isolation method was completed according to the manufacturer’s instructions. A high-capacity cDNA reverse transcription kit was used to produce complementary DNA (cDNA) (Applied Biosystems, USA). […] The relative gene expression method (i.e., ΔΔCT) was used to analyze the real-time PCR data, as explained in Applied Biosystem User Bulletin No. 2. Each sample and gene were normalized using the β-actin gene.

[7] = system: MCF7 cells; assay: Annexin V-FITC/PI apoptosis flow cytometry, MCF7; settings: for percentage of late apoptotic cells (Q1-UR) / percentage of necrotic cells (Q1-UL) / percentage of early apoptotic cells (Q1-LR): MCF7, 24 h, IC50; for percentage of late apoptotic cells (Q1-UR): control 0.41%; for percentage of necrotic cells (Q1-UL): control 1.01%; for percentage of early apoptotic cells (Q1-LR): control 7.8%; for induction of apoptotic death: MCF7 cells
Description: (§3) The percentage of apoptotic cells was detected by using Annexin V-FITC kit catalog number (#K101-25). About 2X10^6 of MCF7 and Paca2 cells were washed in 500 µl of 1 × PBS. Then, the cells were centrifuged and the supernatant was discarded. The cells pellet were re-suspended in the annexin V incubation reagent. The annexin V incubation reagent contained 10 μl binding buffer (10 ×), 10 μl propidium iodide, 1 μl annexin V-FITC, and 79 μl deionized water. The cells were incubated in 100 μl annexin V incubation reagent for 15 min in the dark at room temperature. Finally, the apoptotic cell percentage was detected by flow cytometry using the FITC signal detector (usually FL-1) and PI staining by the phycoerythrin emission signal detector (usually FL-2).

[8] = system: BAX; assay: ELISA BAX in Paca2 cells; settings: control 3.86
Source text: as §1

[9] = system: Bcl2; assay: ELISA Bcl2 in Paca2 cells; settings: control 16.23
Source text: as §1

[10] = system: Paca2 cells; assay: Annexin V-FITC/PI apoptosis flow cytometry, Paca2; settings: Paca2, 24 h, IC50
Description: as §3

[11] = system: P53; assay: RT-qPCR P53 mRNA in Paca2; settings: 17 vs both Dox. and negative control
Description: as §2

[12] = system: IL-8; assay: RT-qPCR IL-8 mRNA in Paca2; settings: 17 vs both Dox. and negative control
Description: as §2

Structure (SMILES) | percentage of late apoptotic cells (Q1-UR) [7] | percentage of necrotic cells (Q1-UL) [7] | percentage of early apoptotic cells (Q1-LR) [7] | induction of apoptotic death [7] | P53 mRNA level [11] | IL-8 mRNA level [12] | also measured
COc1ccc(-c2c(Cl)n(-c3ccc(Cl)cc3Cl)c3ncnc(Cl)c23)cc1OC [Compound 4b, 4,6-dichloro-7-(2,4-dichlorophenyl)-5-(3,4-dimethoxyphenyl)-7H-pyrrolo[2,3-d]pyrimidine] |  |  |  |  |  |  | caspase 3 level (ELISA) [1]: 12.12 pg/mL; caspase 8 level (ELISA) [2]: 16.84 pg/mL; BAX level (ELISA) [3]: 14.83 pg/mL; Bcl2 level (ELISA) [4]: 9.4 pg/mL; DNA fragmentation value [5]: increased significantly; IL-8 mRNA level [6]: down-regulated
COc1ccc(-c2c(Cl)n(-c3ccc(Cl)cc3Cl)c3ncnc(N4CCN(C)CC4)c23)cc1OC [Compound 16b, 6-chloro-7-(2,4-dichlorophenyl)-5-(3,4-dimethoxyphenyl)-4-(4-methylpiperazin-1-yl)-7H-pyrrolo[2,3-d]pyrimidine] | 1.7% | 0.96% | 11.49% | induced the apoptotic death |  |  | 
CN1CCN(c2nc(C(Cl)(Cl)Cl)nc3c2c(-c2ccc(Br)cc2)c(Cl)n3-c2ccc(Cl)cc2Cl)CC1 [Compound 17, 5-(4-bromophenyl)-6-chloro-7-(2,4-dichlorophenyl)-4-(4-methylpiperazin-1-yl)-2-(trichloromethyl)-7H-pyrrolo[2,3-d]pyrimidine] |  |  |  |  | up-regulated | lowered | BAX level (ELISA) [8]: 11.85 pg/mL; Bcl2 concentration (ELISA) [9]: 6.26 pg/mL; percentage of late apoptotic cells (Q1-UR) ([10]; control 0.54%): 0.86%; percentage of necrotic cells (Q1-UL) ([10]; control 2.27%): 6.17%; percentage of early apoptotic cells (Q1-LR) ([10]; control 4.46%): 4.74%
COc1ccc(-c2c(Cl)n(-c3ccc(Cl)cc3Cl)c3ncnc(N4CCOCC4)c23)cc1OC [Compound 18b, 4-(6-chloro-7-(2,4-dichlorophenyl)-5-(3,4-dimethoxyphenyl)-7H-pyrrolo[2,3-d]pyrimidin-4-yl)morpholine] | 0.89% | 0.76% | 20.63% | induced the apoptotic death |  |  | 
COc1cccc2c1C(=O)c1c(O)c3c(c(O)c1C2=O)C[C@@](O)(C(=O)CO)C[C@@H]3O[C@H]1C[C@H](N)[C@H](O)[C@H](C)O1 [Dox, Doxorubicin, reference compound] |  |  |  |  | no significant difference | no significant difference | 
